# According to US7772218B2, “Synthesis of anti-estrogenic and other therapeutic steroids from 21-hydroxy-19-norpregna-4-en-3-one” (SRI International, priority 2000, dated 2010):
# Where a name gives a salt, the structure may show the parent alone.
# Assays:
# DU145 cells = assay: growth inhibition assay (MTT), androgen-independent human prostate cancer cells; assay type: cell-based; conditions: concentrations of 5 μM or higher, 7 days of treatment, 575 nm
# Experimental: (§1) [drawing 32] was synthesized as described in Example 4 without methylation at the 7-position of the steroid nucleus. The compound was evaluated for its inhibitory effect on androgen-independent human prostate cancer cells, DU145 cells and PC-3 cells, in a standard in vitro androgen-independent human prostate cancer assay.
# (§2) DU145 and PC-3 human prostate cancer cell lines were obtained from the American Type Culture Collection, Rockville, Md. Eagle's minimum essential medium, RPMI-1640 medium, fetal calf serum, nonessential amino acids, and sodium pyruvate were purchased from Sigma, St. Louis, Mo.
# (§3) PC-3 cells were maintained in RPMI-1640 medium supplemented with 10% fetal calf serum (FCS) and DU145 cells in Eagle's minimum essential medium (MEM) supplemented with 10% FCS. 1% nonessential amino acids, and 1 mM pyruvate. All cells were cultured at 37° C. in a 5% CO2/ 95% air atmosphere in 100% humidity. […] After 7 days of treatment, viable cells in each well were measured using the MTT assay as described in “Cellular Proliferation Assay,” in Protocols and Applications, 3rd Edition (Promega Corporation). […]
# (§4) The plate was kept at room temperature overnight and the blue color measured at 575 nm on an ELISA plate reader. Based on the optical density of samples treated with the test compound and that of the control, the inhibitory effect of SR 16312 was evaluated.
# PC-3 cells = assay: as above; assay type: cell-based; conditions: concentrations of 5 μM or higher, 7 days of treatment, 575 nm
# Experimental: as §1, §2, §3, §4
# human breast tumor cells = conditions: cited from earlier work
# [1] = in vivo, cited from earlier work
# human uterine tissue = conditions: cited from earlier work
# [2] = rats; cited from earlier work
# [3] = rats; cited from earlier work; remark: listed apart in the source
# rat uterine tissue = conditions: cited from earlier work
SMILES,inhibition (DU145 cells) [%],inhibition (PC-3 cells) [%],antagonist-antiestrogenic activity (human breast tumor cells),oral bioavailability ([1]; po),absorption [1],half-life [1],anti-uterotrophic antagonist activity (human uterine tissue),high-density lipoprotein (HDL) cholesterol levels [2],low-density lipoprotein (LDL) cholesterol levels [2],agonist-estrogenic activity in the skeletal system [3],anti-uterotrophic antagonist activity (rat uterine tissue)
CCN(CC)Cc1ccc(OCC[C@H]2CCC3C4CCC5=CC(=O)CCC5C4CCC32C)c(OC)c1 (some centres unmarked) [SR 16312],~100,~100,–,–,–,–,–,–,–,–,–
"CCN(CC)Cc1ccc(OCC[C@H]2CCC3C4C(CCC32C)c2ccc(O)cc2C[C@H]4C)c(OC)c1 (stereo partly drawn) [SR 16234, 3-hydroxy-7α-methyl-21-[2′-methoxy-4′-(diethylaminomethyl)-phenoxy]-19-norpregna-1,3,5(10)triene citrate]",–,–,complete,good,good,good,complete,increased,lowered,maintenance of bone and prevention of bone loss,complete
